Reference: PubChem BioAssay (NCI)
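Protocol summary: plate cells (96-well), add compound at 5 concentrations, incubate 48 h, interpolate endpoints linearly. GI50: concentration for 50% inhibition of growth. At the TGI there is no net growth.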

Assays:
Assay in all cases: NCI anticancer screen, dose series, 48 h
IGROV1 ovarian = system: IGROV1 ovarian
UO-31 renal = system: UO-31 renal
RXF 393 renal = system: RXF 393 renal
SK-MEL-2 melanoma = system: SK-MEL-2 melanoma
HCT-116 colon = system: HCT-116 colon
786-0 renal = system: 786-0 renal
SN12C renal = system: SN12C renal
HCC-2998 colon = system: HCC-2998 colon
HS 578T breast = system: HS 578T breast
SNB-75 CNS = system: SNB-75 CNS
HOP-92 NSCLC = system: HOP-92 NSCLC
SK-OV-3 ovarian = system: SK-OV-3 ovarian
A498 renal = system: A498 renal
CAKI-1 renal = system: CAKI-1 renal
OVCAR-3 ovarian = system: OVCAR-3 ovarian
ACHN renal = system: ACHN renal
MDA-MB-231 breast = system: MDA-MB-231 breast
SF-268 CNS = system: SF-268 CNS
PC-3 prostate = system: PC-3 prostate
OVCAR-8 ovarian = system: OVCAR-8 ovarian
NCI-H23 lung = system: NCI-H23 lung
SK-MEL-28 melanoma = system: SK-MEL-28 melanoma
UACC-257 melanoma = system: UACC-257 melanoma
SW-620 colon = system: SW-620 colon
A549 NSCLC = system: A549 NSCLC
MCF7 breast = system: MCF7 breast
M14 melanoma = system: M14 melanoma
UACC-62 melanoma = system: UACC-62 melanoma
EKVX NSCLC = system: EKVX NSCLC
SF-539 CNS = system: SF-539 CNS
SR leukemia = system: SR leukemia
OVCAR-5 ovarian = system: OVCAR-5 ovarian
SK-MEL-5 melanoma = system: SK-MEL-5 melanoma
HL-60(TB) leukemia = system: HL-60(TB) leukemia
NCI-H460 lung = system: NCI-H460 lung
NCI-H226 lung = system: NCI-H226 lung
COLO 205 colon = system: COLO 205 colon
T-47D breast = system: T-47D breast
HCT-15 colon = system: HCT-15 colon
TK-10 renal = system: TK-10 renal
BT-549 breast = system: BT-549 breast
MOLT-4 leukemia = system: MOLT-4 leukemia
SF-295 CNS = system: SF-295 CNS
DU-145 prostate = system: DU-145 prostate
U251 CNS = system: U251 CNS
HOP-62 NSCLC = system: HOP-62 NSCLC
NCI-H522 lung = system: NCI-H522 lung
MDA-MB-435 = system: MDA-MB-435
MALME-3M melanoma = system: MALME-3M melanoma
HT29 colon = system: HT29 colon
KM12 colon = system: KM12 colon
LOX IMVI melanoma = system: LOX IMVI melanoma
NCI/ADR-RES ovarian = system: NCI/ADR-RES ovarian
OVCAR-4 ovarian = system: OVCAR-4 ovarian
SNB-19 CNS = system: SNB-19 CNS

Oc1c(Cl)cc(Cl)c(Cl)c1Cc1c(O)c(Cl)cc(Cl)c1Cl
GI50 (IGROV1 ovarian): 1870 nM
TGI (IGROV1 ovarian): 23.6 µM
GI50 (UO-31 renal): 2180 nM
TGI (UO-31 renal): 11.8 µM
GI50 (RXF 393 renal): 4.04 µM
TGI (RXF 393 renal): 22.4 µM
GI50 (SK-MEL-2 melanoma): 497 nM
TGI (SK-MEL-2 melanoma): 3.48 µM
GI50 (HCT-116 colon): 410 nM
TGI (HCT-116 colon): 10.2 µM
GI50 (786-0 renal): 1960 nM
TGI (786-0 renal): 11.8 µM
GI50 (SN12C renal): 431 nM
TGI (SN12C renal): 22.2 µM
GI50 (HCC-2998 colon): 584 nM
TGI (HCC-2998 colon): 12.9 µM
GI50 (HS 578T breast): 1030 nM
TGI (HS 578T breast): 51.3 µM
GI50 (SNB-75 CNS): 1650 nM
TGI (SNB-75 CNS): 10.6 µM
GI50 (HOP-92 NSCLC): 274 nM
TGI (HOP-92 NSCLC): 682 nM
GI50 (SK-OV-3 ovarian): 2530 nM
TGI (SK-OV-3 ovarian): 11.6 µM
GI50 (A498 renal): 419 nM
TGI (A498 renal): 7.12 µM
GI50 (CAKI-1 renal): 525 nM
TGI (CAKI-1 renal): 7.36 µM
GI50 (OVCAR-3 ovarian): 1340 nM
TGI (OVCAR-3 ovarian): 8.47 µM
GI50 (ACHN renal): 2270 nM
TGI (ACHN renal): 31.3 µM
GI50 (MDA-MB-231 breast): 1350 nM
TGI (MDA-MB-231 breast): 5.53 µM
GI50 (SF-268 CNS): 1080 nM
TGI (SF-268 CNS): 17.5 µM
GI50 (PC-3 prostate): 498 nM
TGI (PC-3 prostate): 10.6 µM
GI50 (OVCAR-8 ovarian): 941 nM
TGI (OVCAR-8 ovarian): 16.5 µM
GI50 (NCI-H23 lung): 593 nM
TGI (NCI-H23 lung): 12 µM
GI50 (SK-MEL-28 melanoma): 2130 nM
TGI (SK-MEL-28 melanoma): 15.9 µM
GI50 (UACC-257 melanoma): 2060 nM
TGI (UACC-257 melanoma): 9.3 µM
GI50 (SW-620 colon): 3.06 µM
TGI (SW-620 colon): 14.4 µM
GI50 (A549 NSCLC): 1990 nM
TGI (A549 NSCLC): 12.9 µM
GI50 (MCF7 breast): 1340 nM
TGI (MCF7 breast): 13.9 µM
GI50 (M14 melanoma): 1380 nM
TGI (M14 melanoma): 13.9 µM
GI50 (UACC-62 melanoma): 335 nM
TGI (UACC-62 melanoma): 12 µM
GI50 (EKVX NSCLC): 973 nM
TGI (EKVX NSCLC): 16.7 µM
GI50 (SF-539 CNS): 3.39 µM
TGI (SF-539 CNS): 18.8 µM
GI50 (SR leukemia): 1190 nM
TGI (SR leukemia): > 100 µM
GI50 (OVCAR-5 ovarian): 6.14 µM
TGI (OVCAR-5 ovarian): 19.1 µM
GI50 (SK-MEL-5 melanoma): 712 nM
TGI (SK-MEL-5 melanoma): 3.04 µM
GI50 (HL-60(TB) leukemia): 678 nM
TGI (HL-60(TB) leukemia): 7.96 µM
GI50 (NCI-H460 lung): 534 nM
TGI (NCI-H460 lung): 12.5 µM
GI50 (NCI-H226 lung): 2460 nM
TGI (NCI-H226 lung): 13 µM
GI50 (COLO 205 colon): 2680 nM
TGI (COLO 205 colon): 15 µM
GI50 (T-47D breast): 2410 nM
TGI (T-47D breast): 15 µM
GI50 (HCT-15 colon): 528 nM
TGI (HCT-15 colon): 13.7 µM
GI50 (TK-10 renal): 3.04 µM
TGI (TK-10 renal): 35.5 µM
GI50 (BT-549 breast): 1260 nM
TGI (BT-549 breast): 10.3 µM
GI50 (MOLT-4 leukemia): 1310 nM
TGI (MOLT-4 leukemia): 36.1 µM
GI50 (SF-295 CNS): 340 nM
TGI (SF-295 CNS): 2050 nM
GI50 (DU-145 prostate): 4.13 µM
TGI (DU-145 prostate): 22.1 µM
GI50 (U251 CNS): 1090 nM
TGI (U251 CNS): 12.7 µM
GI50 (HOP-62 NSCLC): 1370 nM
TGI (HOP-62 NSCLC): 12.1 µM
GI50 (NCI-H522 lung): 521 nM
TGI (NCI-H522 lung): 9.66 µM
GI50 (MDA-MB-435): 1930 nM
TGI (MDA-MB-435): 12.8 µM
GI50 (MALME-3M melanoma): 1660 nM
TGI (MALME-3M melanoma): 5.93 µM
GI50 (HT29 colon): 2810 nM
TGI (HT29 colon): 12.4 µM
GI50 (KM12 colon): 953 nM
TGI (KM12 colon): 11.5 µM
GI50 (LOX IMVI melanoma): 2390 nM
TGI (LOX IMVI melanoma): 11.2 µM
GI50 (NCI/ADR-RES ovarian): 453 nM
TGI (NCI/ADR-RES ovarian): 10.8 µM
GI50 (OVCAR-4 ovarian): 2520 nM
TGI (OVCAR-4 ovarian): 14 µM
GI50 (SNB-19 CNS): 908 nM
TGI (SNB-19 CNS): 58.9 µM
